Test results: PubChem BioAssay (NCI)
“And” between values parts separate entries of the source, which are not always exact repeats. Equal values may be shown once.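 Cultured in 96-well plates, cells were exposed to test compound for 48 hours across five concentrations. At the GI50, growth is halved. Definition used: TGI = concentration required for complete inhibition of growth.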

Assays:
Test in all cases: DTP human tumour cell line panel, 48 h
SF-268 CNS = test system: SF-268 CNS
NCI-H522 lung = test system: NCI-H522 lung
SK-MEL-5 melanoma = test system: SK-MEL-5 melanoma
HOP-92 NSCLC = test system: HOP-92 NSCLC
UACC-62 melanoma = test system: UACC-62 melanoma
SN12C renal = test system: SN12C renal
SNB-75 CNS = test system: SNB-75 CNS
NCI-H460 lung = test system: NCI-H460 lung
A498 renal = test system: A498 renal
MOLT-4 leukemia = test system: MOLT-4 leukemia

Row | SMILES | TGI (SF-268 CNS) | TGI (NCI-H522 lung) | TGI (SK-MEL-5 melanoma) | TGI (HOP-92 NSCLC) | TGI (UACC-62 melanoma) | TGI (SN12C renal) | TGI (SNB-75 CNS) | TGI (NCI-H460 lung) | TGI (A498 renal) | TGI (MOLT-4 leukemia) | GI50 (SF-268 CNS) | GI50 (NCI-H522 lung) [µM] | GI50 (SK-MEL-5 melanoma) [µM] | GI50 (HOP-92 NSCLC) [µM] | GI50 (UACC-62 melanoma) [µM] | GI50 (SN12C renal) [µM] | GI50 (SNB-75 CNS) [µM] | GI50 (NCI-H460 lung) [µM] | GI50 (A498 renal) | GI50 (MOLT-4 leukemia) [µM]
1 | O=C(O)c1ccccc1C(=O)c1ccco1 | > 100 µM | > 100 µM | > 100 µM | > 100 µM | > 100 µM | > 100 µM | > 100 µM | > 100 µM | > 100 µM | > 100 µM | – | – | – | – | – | – | – | – | – | –
2 | Cc1cc(OC2OC(CO)C(O)C(O)C2O)ccc1O (configuration not stated) | > 100 µM | > 100 µM | > 100 µM | > 100 µM | > 100 µM | > 100 µM | > 100 µM | > 100 µM | > 100 µM | > 100 µM | – | – | – | – | – | – | – | – | – | –
3 | O=c1c2ccccc2nc(-c2cccc(Cl)c2)n1NC1OC(CO)C(O)C(O)C1O (configuration not stated) | > 100 µM | > 100 µM | > 100 µM | > 100 µM | > 100 µM | > 100 µM | > 100 µM | > 100 µM | > 100 µM | > 100 µM | – | – | – | – | – | – | – | – | – | –
4 | OCCNc1nc2ccccc2c2[nH]c3ccccc3c12 | 3.42 µM | 1.73 µM | 2.54 µM | 13.2 µM | 6.52 µM | 11.4 µM | 4.2 µM | 1.24 µM | 1.72 µM | 1.48 µM | 0.519 µM | 0.36 | 0.979 | 0.943 | 1.36 | 0.34 | 1.88 | 0.305 | 0.36 µM | 0.24
5 | O=[N+]([O-])c1cccnc1S(=O)(=O)c1ccccc1 | 27.3 µM | 2.82 µM | 32.6 µM | 3.64 µM | 23.9 µM | 23.5 µM | 35.9 µM | 27.8 µM | 36.6 µM | > 25.7 µM | – | – | – | – | – | – | – | – | – | –
6 | N#CN1CC[C@H](C(=O)Nc2ncc(-c3ccccc3)s2)C1 | 4.23 µM | 0.547 µM | 3.58 µM | 4.25 µM | 2.18 µM | 7.24 µM | 2.69 µM | 2.47 µM | 3.45 µM | 2.04 µM | 0.789 µM | 0.205 | 0.829 | 0.662 | 0.371 | 0.471 | 0.374 | 0.423 | 1.62 µM | 0.309
7 | COc1cccc(-c2cc(=O)c3cc(N4CCN(C)CC4)ccc3[nH]2)c1 | > 100 µM | 4.28 µM and 3.79 µM | – | – | > 100 µM | > 100 µM | 65.1 µM | > 100 µM | 5.32 µM | 7.21 µM | 4.28 µM | 1.02 | 0.766 | 3.1 | 1.46 | 4.68 | 0.612 | – | – | 2.06
8 | CC[n+]1c(-c2ccccc2)c2cc(N)ccc2c2ccc(N)cc21 | 2.44 µM and 11.9 µM and 16.9 µM | 2.54 µM and 8.58 µM and 23.2 µM | 2.14 µM and 2.6 µM | 10.6 µM and 14.6 µM | 2.4 µM and 3.61 µM | 12 µM and 19.7 µM and 7.37 µM | 3.16 µM and 1.14 µM | 12.3 µM and 22.5 µM and 22.1 µM | 40.8 µM and 52.5 µM and 66.2 µM | 21.1 µM and 13 µM and 35.9 µM | 0.281 µM and 0.589 µM and 1.26 µM | – | 0.864 | 1.24 | 0.578 | 0.306 | 1.29 | 1.21 | 5.18 µM and 4.76 µM and 14.7 µM | 2.77
9 | OCc1ccc(-c2ccc(-c3ccc(CO)o3)o2)o1 | > 100 µM | > 100 µM | > 100 µM | > 100 µM | > 100 µM | > 100 µM | 79.7 µM | > 100 µM | 0.39 µM | > 100 µM | > 61.7 µM | > 100 | > 100 | > 49.6 | 16.7 | > 100 | 23.2 | > 100 | 0.18 µM | > 100
10 | N=C(N)n1cc(/C=N/N=C(N)N)cn1 | > 100 µM | > 100 µM | > 100 µM | > 100 µM | > 100 µM | > 100 µM | > 100 µM | > 100 µM | > 100 µM | > 100 µM | – | – | – | – | – | – | – | – | – | –
11 | COC(=O)c1ccc(NC(N)=NCCC(C)(C)c2ccc(C(F)(F)F)cc2)nc1 | 24.8 µM | 13 µM | 2.99 µM | 23.8 µM | 3.07 µM | 3.25 µM | 19.8 µM | 4.56 µM | 14.7 µM | 7.33 µM | 6.23 µM | 3.1 | 1.56 | 5.54 | 1.58 | 1.7 | 5.51 | 2.06 | 2.64 µM | 1.88
12 | CNC(=O)OCc1nc(SSc2nc(COC(=O)NC)c(COC(=O)NC)n2C)n(C)c1COC(=O)NC | > 100 µM | > 100 µM | > 100 µM | > 100 µM | > 100 µM | > 100 µM | > 100 µM | > 100 µM | > 100 µM | > 100 µM | – | – | – | – | – | – | – | – | – | –
13 | NC1=NC(c2ccccc2Cl)c2c(n[nH]c2N)N1 (configuration not stated) | > 100 µM | > 100 µM | > 100 µM | > 100 µM | > 100 µM | > 100 µM | > 100 µM | > 100 µM | > 100 µM | > 100 µM | 26.9 µM | 19.6 | 29.2 | 18.2 | 13.5 | 8.35 | 48 | 5.9 | 17.5 µM | 22.5
14 | CCOC(=O)C[C@@]12CCCN[C@]1(C)CCc1ccccc12 | > 100 µM | > 100 µM | > 100 µM | > 100 µM | > 100 µM | > 100 µM | > 100 µM | > 100 µM | > 100 µM | > 100 µM | – | – | – | – | – | – | – | – | – | –
15 | Cc1ccc2ccc3c4ccccc4ccc3c2c1 | > 100 µM | 51.7 µM | 92.9 µM | 43.9 µM | > 100 µM | > 100 µM | > 100 µM | 76 µM | 63.6 µM | 57.6 µM | 32.1 µM | 19.1 | 27.6 | 12.7 | 21.8 | 27 | 39.3 | 26.3 | 23.1 µM | 21.2
16 | Cc1ccc(C(=O)Nc2ccc(Oc3cc4cnn(C)c4cc3-c3cn[nH]c3)c(F)c2)c(=O)n1-c1ccc(F)cc1 | > 100 µM | > 100 µM | > 100 µM | > 100 µM | > 100 µM | > 100 µM | > 100 µM | > 100 µM | > 100 µM | > 100 µM | 7.21 µM | 32 | 5.59 | 2.34 | 2.08 | 3.08 | 5.61 | 8.12 | 0.404 µM | > 100
17 | O=C(CI)NC(=O)NC(=O)NCc1ccccc1 | 21.6 µM | 3.52 µM | 15.9 µM | 6.29 µM | 14.6 µM | 14.6 µM | 29.2 µM | 23.4 µM | 30.9 µM | 3.15 µM | 4.4 µM | 1.62 | 4.73 | 1.71 | 3.82 | 3.5 | 11.3 | 5.3 | 15.9 µM | 0.969
18 | O=c1[nH]c(=S)[nH]c(O)c1/C=C1\C=Nc2ccccc21 | 7.91 µM | 54.4 µM | 27.2 µM | 27.3 µM | 46.9 µM | 59.4 µM | 5 µM | 18.5 µM | 28.4 µM | 8.02 µM | 2.52 µM | 16.9 | 11.7 | 3.36 | 8.26 | 7.95 | 1.73 | 4.07 | 12.3 µM | 2.51
19 | C[n+]1cn(CC(=O)c2ccccc2)c(C(N)=O)c1N | > 100 µM | > 100 µM | > 100 µM | > 100 µM | > 100 µM | > 100 µM | > 100 µM | > 100 µM | > 100 µM | > 100 µM | – | – | – | – | – | – | – | – | – | –
20 | O=C1C2C(C(=O)N1Cc1ccccc1)N(Cc1ccccc1)C(=O)N2Cc1ccccc1 (configuration not stated) | > 100 µM | > 100 µM | > 100 µM | > 100 µM | > 100 µM | > 100 µM | > 100 µM | > 100 µM | > 100 µM | > 100 µM | – | – | – | – | – | – | – | – | – | –
21 | C/C(=N\NC(=S)N1CCC1)c1ccccn1 | > 100 µM | > 45.9 µM | 2.01 µM | 47.9 µM | 7.36 µM | > 100 µM | > 29.9 µM | 6.33 µM | 10.6 µM | > 10.5 µM | 0.00557 µM | 0.00976 | 0.00994 | 0.0351 | – | 0.0289 | – | 0.07 | – | 0.00601
22 | COC(=O)[C@]12CC[C@@H](C)[C@H](C)[C@@H]1C1=CC[C@@H]3[C@@]4(C)C(C=O)=C[C@@](C)(COS(C)(=O)=O)C4=CC[C@@]3(C)[C@]1(C)CC2 | 0.721 µM | 0.371 µM | 0.333 µM | 0.55 µM | 0.551 µM | 1.92 µM | 0.61 µM | 0.534 µM | 1.13 µM | 1.05 µM | 0.248 µM | 0.178 | 0.175 | 0.197 | 0.2 | 0.339 | 0.161 | 0.226 | 0.193 µM | 0.244
23 | CCOC(=O)c1cc(C(=O)c2ccc(OC)c(OC)c2)n2c1ccc1ccc3cccnc3c12 | > 100 µM | > 100 µM | 37.7 µM | > 100 µM | > 100 µM | > 100 µM | > 100 µM | > 100 µM | > 100 µM | > 100 µM | 4.62 µM | 0.611 | 0.836 | 6.78 | 0.918 | 5.46 | 2.04 | 1.58 | 2.82 µM | 4.53
